Measurements: paper PMC4051630, “A Comparison of Protein Kinases Inhibitor Screening Methods Using Both Enzymatic Activity and Binding Affinity Determination” (PLoS ONE, 2014)

What was measured:
Experiment in all cases: Differential Scanning Fluorimetry (DSF) Tm shift
Type in all cases: binding
FAK2 Catalytic Domain = molecular target: T1, FAK2 Catalytic Domain (Homo sapiens, UniProt Q14289); details: 2 µM protein, 10 µM inhibitor, average of 3 experiments, each in duplicate
T1 construct: For all of them, we expressed and purified the catalytic domain separately; His-tag; made in house; host or cells: Escherichia coli

[1] = molecular target: T2, PAK4 Catalytic Domain+PBD (Homo sapiens, UniProt O96013); details: 2 µM protein, 10 µM inhibitor, average of 3 experiments, each in duplicate
T2 construct: for 8, we also made a longer version containing one or more additional domains; His-tag; made in house; host or cells: Escherichia coli

PAK4 Catalytic Domain = molecular target: T3, PAK4 Catalytic Domain (Homo sapiens, UniProt O96013); details: 2 µM protein, 10 µM inhibitor, average of 3 experiments, each in duplicate
T3 construct: For all of them, we expressed and purified the catalytic domain separately; His-tag; made in house; host or cells: Escherichia coli

PAK7 Catalytic Domain = molecular target: T4, PAK7 Catalytic Domain (Homo sapiens, UniProt Q9P286); details: 2 µM protein, 10 µM inhibitor, average of 3 experiments, each in duplicate
T4 construct: For all of them, we expressed and purified the catalytic domain separately; His-tag; made in house; host or cells: Escherichia coli

[2] = molecular target: SRC Catalytic Domain+SH2+SH3 (Homo sapiens, UniProt P12931); details: 2 µM protein, 10 µM inhibitor, average of 3 experiments, each in duplicate
[3] = molecular target: T5, STK3 Catalytic domain+SARAH (Homo sapiens, UniProt Q13188); details: 2 µM protein, 10 µM inhibitor, average of 3 experiments, each in duplicate
T5 construct: for 8, we also made a longer version containing one or more additional domains; His-tag; made in house; host or cells: Escherichia coli
T5 sequence (Q13188 1-491): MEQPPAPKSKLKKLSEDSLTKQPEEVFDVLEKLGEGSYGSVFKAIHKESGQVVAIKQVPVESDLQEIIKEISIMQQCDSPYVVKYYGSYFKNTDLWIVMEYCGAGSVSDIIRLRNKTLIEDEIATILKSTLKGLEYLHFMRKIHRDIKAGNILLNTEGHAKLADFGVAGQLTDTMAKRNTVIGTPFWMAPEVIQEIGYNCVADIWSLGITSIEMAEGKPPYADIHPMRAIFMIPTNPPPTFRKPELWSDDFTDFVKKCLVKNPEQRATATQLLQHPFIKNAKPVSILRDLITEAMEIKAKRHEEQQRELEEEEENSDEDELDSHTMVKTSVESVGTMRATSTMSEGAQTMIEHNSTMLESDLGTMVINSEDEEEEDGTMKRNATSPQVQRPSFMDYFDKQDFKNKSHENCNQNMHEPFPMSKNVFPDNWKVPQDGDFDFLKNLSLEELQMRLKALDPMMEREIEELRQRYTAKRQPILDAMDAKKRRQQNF

STK3 Catalytic Domain = molecular target: T6, STK3 Catalytic Domain (Homo sapiens, UniProt Q13188); details: 2 µM protein, 10 µM inhibitor, average of 3 experiments, each in duplicate
T6 construct: For all of them, we expressed and purified the catalytic domain separately; His-tag; made in house; host or cells: Escherichia coli
T6 sequence (Q13188 27-278 limits assumed): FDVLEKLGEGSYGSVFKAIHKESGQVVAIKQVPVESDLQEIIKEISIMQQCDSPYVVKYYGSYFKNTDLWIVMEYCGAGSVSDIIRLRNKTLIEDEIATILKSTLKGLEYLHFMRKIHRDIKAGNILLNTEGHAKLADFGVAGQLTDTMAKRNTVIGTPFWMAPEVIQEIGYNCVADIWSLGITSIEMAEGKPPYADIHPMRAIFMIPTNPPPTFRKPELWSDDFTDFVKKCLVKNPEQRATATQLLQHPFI

SRC Catalytic Domain = SRC Catalytic Domain (Homo sapiens, UniProt P12931); parameters: For all of them, we expressed and purified the catalytic domain separately; His-tag; made in house; host or cells: Escherichia coli; details: 2 µM protein, 10 µM inhibitor, average of 3 experiments, each in duplicate
CHK2 Catalytic Domain = molecular target: T7, CHK2 Catalytic Domain (Homo sapiens, UniProt O96017); details: 2 µM protein, 10 µM inhibitor, average of 3 experiments, each in duplicate
T7 construct: For all of them, we expressed and purified the catalytic domain separately; His-tag; made in house; host or cells: Escherichia coli

DMPK Catalytic Domain = molecular target: T8, DMPK Catalytic Domain (Homo sapiens, UniProt Q09013); details: 2 µM protein, 10 µM inhibitor, average of 3 experiments, each in duplicate
T8 construct: For all of them, we expressed and purified the catalytic domain separately; His-tag; made in house; host or cells: Escherichia coli
T8 sequence (Q09013 71-339 limits assumed): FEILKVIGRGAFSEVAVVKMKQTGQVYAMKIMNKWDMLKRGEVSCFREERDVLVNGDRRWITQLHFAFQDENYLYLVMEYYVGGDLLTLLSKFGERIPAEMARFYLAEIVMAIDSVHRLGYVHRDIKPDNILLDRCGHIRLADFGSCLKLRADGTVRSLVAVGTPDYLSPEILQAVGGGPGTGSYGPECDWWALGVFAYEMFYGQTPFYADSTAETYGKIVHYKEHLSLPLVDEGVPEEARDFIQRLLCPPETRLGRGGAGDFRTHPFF

FES Catalytic Domain+SH2 = molecular target: T9, FES Catalytic Domain+SH2 (Homo sapiens, UniProt P07332); details: 2 µM protein, 10 µM inhibitor, average of 3 experiments, each in duplicate
T9 construct: for 8, we also made a longer version containing one or more additional domains; His-tag; made in house; host or cells: Escherichia coli

FES Catalytic Domain = molecular target: T10, FES Catalytic Domain (Homo sapiens, UniProt P07332); details: 2 µM protein, 10 µM inhibitor, average of 3 experiments, each in duplicate
T10 construct: For all of them, we expressed and purified the catalytic domain separately; His-tag; made in house; host or cells: Escherichia coli

AKT3 Catalytic Domain = molecular target: T11, AKT3 Catalytic Domain (Homo sapiens, UniProt Q9Y243); details: 2 µM protein, 10 µM inhibitor, average of 3 experiments, each in duplicate
T11 construct: AKT3 (Q9Y243); CD; His-tag; made in house; host or cells: Escherichia coli

CDK2 + Cyclin A = molecular target: T12, CDK2 + Cyclin A (Homo sapiens, UniProt P24941); details: CDK2 + Cyclin A; 2 µM protein, 10 µM inhibitor; average of 3 experiments, each in duplicate
T12 construct: CDK2 (P24941); 1–299; His-tag; made in house; host or cells: Escherichia coli

CDK2 + Cyclin E = molecular target: T13, CDK2 + Cyclin E (Homo sapiens, UniProt P24941); details: CDK2 + Cyclin E; 2 µM protein, 10 µM inhibitor; average of 3 experiments, each in duplicate
T13 construct: CDK2 (P24941); 1–299; His-tag; made in house; host or cells: Escherichia coli

T3 sequence (O96013 321-572 limits assumed): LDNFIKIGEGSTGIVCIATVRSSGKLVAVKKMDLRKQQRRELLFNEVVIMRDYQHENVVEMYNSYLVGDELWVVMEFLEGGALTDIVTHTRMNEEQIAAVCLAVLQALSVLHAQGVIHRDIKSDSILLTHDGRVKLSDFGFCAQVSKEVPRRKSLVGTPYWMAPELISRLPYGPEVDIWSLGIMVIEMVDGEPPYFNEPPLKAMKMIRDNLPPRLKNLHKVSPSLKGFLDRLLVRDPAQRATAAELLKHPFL
T11 sequence (Q9Y243 122-479): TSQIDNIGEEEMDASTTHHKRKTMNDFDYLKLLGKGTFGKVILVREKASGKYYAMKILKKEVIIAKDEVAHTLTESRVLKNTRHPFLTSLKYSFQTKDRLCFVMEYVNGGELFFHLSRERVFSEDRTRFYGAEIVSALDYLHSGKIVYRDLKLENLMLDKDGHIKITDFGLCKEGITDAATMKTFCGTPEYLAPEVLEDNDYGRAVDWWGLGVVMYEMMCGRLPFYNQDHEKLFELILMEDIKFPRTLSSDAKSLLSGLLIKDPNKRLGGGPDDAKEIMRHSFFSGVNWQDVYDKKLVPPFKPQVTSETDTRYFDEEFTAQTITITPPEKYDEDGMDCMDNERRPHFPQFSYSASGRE
T7 sequence (O96017 220-486 limits assumed): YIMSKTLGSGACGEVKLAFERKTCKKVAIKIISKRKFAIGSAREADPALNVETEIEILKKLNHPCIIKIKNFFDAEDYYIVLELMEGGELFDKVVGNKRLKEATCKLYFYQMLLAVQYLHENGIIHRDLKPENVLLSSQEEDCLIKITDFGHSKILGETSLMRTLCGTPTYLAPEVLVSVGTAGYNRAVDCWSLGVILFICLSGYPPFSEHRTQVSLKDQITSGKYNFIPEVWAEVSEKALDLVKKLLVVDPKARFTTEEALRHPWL
SRC Catalytic Domain+SH2+SH3, sequence (P12931 84-523 limits assumed): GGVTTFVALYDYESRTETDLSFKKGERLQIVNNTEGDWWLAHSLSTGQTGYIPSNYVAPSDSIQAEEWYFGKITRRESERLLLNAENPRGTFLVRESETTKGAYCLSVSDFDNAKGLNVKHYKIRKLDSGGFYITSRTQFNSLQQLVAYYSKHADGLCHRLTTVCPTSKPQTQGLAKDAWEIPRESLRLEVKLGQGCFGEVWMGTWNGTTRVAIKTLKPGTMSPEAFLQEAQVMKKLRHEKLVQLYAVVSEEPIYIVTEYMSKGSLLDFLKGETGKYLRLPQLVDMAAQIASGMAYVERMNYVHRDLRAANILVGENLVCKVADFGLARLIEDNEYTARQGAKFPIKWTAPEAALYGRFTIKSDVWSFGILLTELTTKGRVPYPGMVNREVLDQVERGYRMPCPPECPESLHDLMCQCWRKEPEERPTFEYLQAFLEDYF
T4 sequence (Q9P286 449-700 limits assumed): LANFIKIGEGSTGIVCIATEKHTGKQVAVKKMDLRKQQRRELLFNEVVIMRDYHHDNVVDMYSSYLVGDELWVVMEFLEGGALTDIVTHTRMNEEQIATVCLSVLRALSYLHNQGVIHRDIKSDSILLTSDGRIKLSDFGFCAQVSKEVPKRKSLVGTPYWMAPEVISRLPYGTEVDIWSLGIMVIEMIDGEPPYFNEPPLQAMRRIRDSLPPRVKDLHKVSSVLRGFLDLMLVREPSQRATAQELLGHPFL
T2 sequence (O96013 whole entry, the tested form may be a part): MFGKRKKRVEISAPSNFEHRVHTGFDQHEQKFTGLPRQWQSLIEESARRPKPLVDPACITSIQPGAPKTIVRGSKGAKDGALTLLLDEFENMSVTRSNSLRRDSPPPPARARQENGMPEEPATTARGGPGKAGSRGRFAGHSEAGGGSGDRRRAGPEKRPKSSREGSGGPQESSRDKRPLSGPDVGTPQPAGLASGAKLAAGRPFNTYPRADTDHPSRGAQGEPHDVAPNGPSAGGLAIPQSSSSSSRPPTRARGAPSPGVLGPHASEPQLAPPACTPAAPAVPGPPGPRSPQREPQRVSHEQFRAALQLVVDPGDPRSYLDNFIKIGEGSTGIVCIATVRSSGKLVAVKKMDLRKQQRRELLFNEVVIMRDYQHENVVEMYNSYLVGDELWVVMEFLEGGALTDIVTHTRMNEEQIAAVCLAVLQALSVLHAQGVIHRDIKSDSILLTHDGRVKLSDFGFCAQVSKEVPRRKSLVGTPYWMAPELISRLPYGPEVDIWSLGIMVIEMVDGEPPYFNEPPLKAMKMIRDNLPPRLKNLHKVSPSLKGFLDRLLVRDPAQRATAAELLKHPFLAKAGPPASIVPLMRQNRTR
SRC Catalytic Domain, sequence (P12931 270-523 limits assumed): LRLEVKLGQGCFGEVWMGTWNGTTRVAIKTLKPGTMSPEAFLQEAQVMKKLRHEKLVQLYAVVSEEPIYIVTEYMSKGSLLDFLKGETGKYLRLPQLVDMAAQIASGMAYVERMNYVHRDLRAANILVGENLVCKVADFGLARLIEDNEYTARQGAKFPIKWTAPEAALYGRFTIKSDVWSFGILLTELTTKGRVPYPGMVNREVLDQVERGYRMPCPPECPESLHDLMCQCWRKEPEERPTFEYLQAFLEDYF
T10 sequence (P07332 561-822 limits assumed): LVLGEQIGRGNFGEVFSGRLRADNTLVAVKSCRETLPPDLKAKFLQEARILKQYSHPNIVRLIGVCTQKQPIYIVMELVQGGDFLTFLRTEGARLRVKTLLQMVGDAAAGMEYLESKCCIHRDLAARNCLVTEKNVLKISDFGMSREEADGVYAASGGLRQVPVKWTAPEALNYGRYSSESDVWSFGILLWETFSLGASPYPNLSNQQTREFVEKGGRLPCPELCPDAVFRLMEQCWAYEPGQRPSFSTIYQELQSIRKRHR
T9 sequence (P07332 448-822 limits assumed): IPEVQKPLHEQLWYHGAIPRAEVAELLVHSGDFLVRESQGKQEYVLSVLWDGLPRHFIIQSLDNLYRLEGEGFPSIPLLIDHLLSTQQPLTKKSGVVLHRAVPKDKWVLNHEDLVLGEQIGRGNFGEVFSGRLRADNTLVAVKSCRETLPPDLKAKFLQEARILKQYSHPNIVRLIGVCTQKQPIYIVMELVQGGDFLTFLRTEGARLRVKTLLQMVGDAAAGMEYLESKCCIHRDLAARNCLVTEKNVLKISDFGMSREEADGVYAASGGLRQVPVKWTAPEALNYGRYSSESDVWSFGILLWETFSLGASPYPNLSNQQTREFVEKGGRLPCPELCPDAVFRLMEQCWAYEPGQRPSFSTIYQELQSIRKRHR
T1 sequence (Q14289 425-683 limits assumed): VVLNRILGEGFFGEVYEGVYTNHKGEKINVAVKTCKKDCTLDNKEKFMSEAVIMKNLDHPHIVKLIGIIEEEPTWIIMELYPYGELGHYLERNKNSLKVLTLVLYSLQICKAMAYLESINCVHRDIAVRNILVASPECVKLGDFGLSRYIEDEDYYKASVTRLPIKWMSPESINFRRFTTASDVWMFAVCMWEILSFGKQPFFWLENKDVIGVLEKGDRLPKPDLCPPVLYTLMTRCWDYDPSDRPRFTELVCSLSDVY

Row | Melting temperature (Tm) shift (FAK2 Catalytic Domain) [degrees Celcius] | Melting temperature (Tm) shift [1] [degrees Celcius] | Melting temperature (Tm) shift (PAK4 Catalytic Domain) [degrees Celcius] | Melting temperature (Tm) shift (PAK7 Catalytic Domain) [degrees Celcius] | Melting temperature (Tm) shift [2] [degrees Celcius] | Melting temperature (Tm) shift [3] [degrees Celcius] | Melting temperature (Tm) shift (STK3 Catalytic Domain) [degrees Celcius] | Melting temperature (Tm) shift (SRC Catalytic Domain) [degrees Celcius] | Melting temperature (Tm) shift (CHK2 Catalytic Domain) [degrees Celcius] | Melting temperature (Tm) shift (DMPK Catalytic Domain) [degrees Celcius] | Melting temperature (Tm) shift (FES Catalytic Domain+SH2) [degrees Celcius] | Melting temperature (Tm) shift (FES Catalytic Domain) [degrees Celcius] | Melting temperature (Tm) shift (AKT3 Catalytic Domain) [degrees Celcius] | Melting temperature (Tm) shift (CDK2 + Cyclin A) [degrees Celcius] | Melting temperature (Tm) shift (CDK2 + Cyclin E) [degrees Celcius] | SMILES
1 |  |  |  | 0.0 | 6.4 | 0.2 | 1.3 | 9.4 | 2.2 |  | 0.3 | 0.7 |  |  |  | Nc1ncnc2c1c(-c1ccc(Oc3ccccc3)cc1)cn2C1CCCC1 [Lck Inhibitor]
2 | 1.0 |  |  |  | 3.9 | 0.0 | 1.7 | 5.9 | 7.6 |  | 1.5 | 1.6 |  |  |  | COc1cc2nccc(Oc3ccc(NC(=S)NC(=O)c4ccccc4C)cc3)c2cc1OC [PDGF RTK Inhibitor]
3 | 0.4 | 0.1 | 0.1 | 0.0 | 0.1 | 0.3 | 0.2 |  | 0.3 | 0.8 | 0.0 |  | 0.0 | 0.2 | 0.3 | N#CC(c1ccnc(NCCc2cccnc2)n1)c1nc2ccccc2s1 (centres unmarked) [JNK Inhibitor V]

More lines, now with the values behind:

Row | SMILES | Melting temperature (Tm) shift (FAK2 Catalytic Domain) [degrees Celcius] | Melting temperature (Tm) shift [1] [degrees Celcius] | Melting temperature (Tm) shift (PAK4 Catalytic Domain) [degrees Celcius] | Melting temperature (Tm) shift (PAK7 Catalytic Domain) [degrees Celcius] | Melting temperature (Tm) shift [2] [degrees Celcius] | Melting temperature (Tm) shift [3] [degrees Celcius] | Melting temperature (Tm) shift (STK3 Catalytic Domain) [degrees Celcius] | Melting temperature (Tm) shift (SRC Catalytic Domain) [degrees Celcius] | Melting temperature (Tm) shift (CHK2 Catalytic Domain) [degrees Celcius] | Melting temperature (Tm) shift (DMPK Catalytic Domain) [degrees Celcius] | Melting temperature (Tm) shift (FES Catalytic Domain+SH2) [degrees Celcius] | Melting temperature (Tm) shift (FES Catalytic Domain) [degrees Celcius] | Melting temperature (Tm) shift (AKT3 Catalytic Domain) [degrees Celcius] | Melting temperature (Tm) shift (CDK2 + Cyclin A) [degrees Celcius] | Melting temperature (Tm) shift (CDK2 + Cyclin E) [degrees Celcius]
4 | CN1C(=O)C(=C2Nc3ccccc3C2=NO)c2ccc(Br)cc21 [GSK-3 Inhibitor IX, Control, MeBIO] | 0.1 | 0.3 | 0.0 | 0.0 | 0.0 | 0.4 | 0.1 | 0.0 |  |  |  |  |  |  | 
5 | Cc1nc(N)sc1-c1ccnc(Nc2cccc([N+](=O)[O-])c2)n1 [Cdk2/9 Inhibitor] | 0.5 | 2.0 | 0.7 | 0.3 | 0.6 | 0.4 | 0.7 | 0.5 | 1.8 | 0.4 | 0.1 | 0.3 |  |  | 
6 | Cl.Cl.O=S(=O)(NCCNC/C=C/c1ccc(Br)cc1)c1cccc2cnccc12 [H-89, Dihydrochloride] | 0.8 | 0.0 | 0.4 | 0.3 | 0.0 | 0.4 | 0.0 |  | 0.5 | 0.0 | 0.2 | 0.4 | 0.3 | 0.5 | 0.3
7 | Cl.NCCCn1cc(C2=C(c3c[nH]c4ccccc34)C(=O)NC2=O)c2ccccc21 [Bisindolylmaleimide III, Hydrochloride] | 0.7 | 1.6 | 1.4 | 1.1 | 0.0 | 4.6 | 1.8 |  | 5.6 | 4.2 | 0.5 | 0.8 | 0.6 | 2.1 | 0.7
8 | Nc1ncnc2c1c(I)cn2[C@@H]1O[C@H](CO)[C@@H](O)[C@H]1O [5-Iodotubercidin] | 0.4 | 0.7 | 0.7 | 0.4 | 0.1 | 1.5 | 3.0 |  | 0.6 | 0.2 | 0.0 | 1.0 | 0.0 | 2.5 | 1.3
9 | CCCC(=O)Oc1ccc2[nH]c(C(=O)c3cc4ccccc4[nH]3)cc2c1 | 0.3 |  | 0.0 | 0.1 | 0.6 | 1.2 | 0.5 | 1.1 | 1.4 |  | 0.1 | 0.3 |  |  | 
